Measurements from patent US11066414B2, “Cot modulators and methods of use thereof” (Gilead Sciences, Inc., priority 2015, dated 2021).

Test system: TNFα
Test: Cot Monocyte TNFα Cell Based Assay
Details: Homo sapiens, Monocyte, read-out: EC50 TNF, LPS-stimulated human monocytes, TNFα
Description: The cell suspension was then plated at a density of 5,000 cells/well onto black 384 well Greiner clear bottom plates. Plates were pre-spotted with test compounds and serially diluted in DMSO where 200 nL/well were delivered using the Echo 550 acoustic liquid dispenser (Labcyte®) for a final DMSO concentration of 0.5%. Plated cells were treated with compound for 1 hour at 37° C. Cells were then stimulated with 50 pg/ml of LPS (Sigma) excluding outside columns of plate used for unstimulated cell control wells. Cells were incubated for an additional 4 hours at 37° C. Cells were then spun out of the media and 5 μl of sample were taken and analyzed for total TNFα content using the TR-FRET Human TNFα detection system (CisBio). This system utilizes two labeled antibodies (cryptate and XL665) that bind to two different epitopes of the TNFα molecule and produce FRET signal proportional to the concentration of TNFα in the sample. […] Plates were covered with clear seals and incubated at room temp overnight. […] Percent of control was calculated as follows: % Control=100×(RatioSample−Ratio0% Stimulation)/(Ratio100% Stimulation−Ratio0% Stimulation) where unstimulated cells (0% stimulation) were the negative control and stimulated cells (100% stimulation) were used as the positive control.

Q: Cc1ncoc1[C@H](Nc1cc(C#N)c2ncc(C#N)c(NCC(C)(C)C)c2c1)c1cn(C2(C(F)F)CC2)nn1 [Example 657, (R)-6-(((1-(1-(difluoromethyl)-cyclopropyl)-1H-1,2,3-triazol-4-yl)(4-methyloxazol-5-yl)methyl)amino)-4-(neopentylamino)quinoline-3,8-dicarbonitrile] was tested. Which EC50 did it give?
A: 806 nM

Biological target: Human Cot (Homo sapiens (Human), UniProt P41279)
Sequence (P41279 30-397): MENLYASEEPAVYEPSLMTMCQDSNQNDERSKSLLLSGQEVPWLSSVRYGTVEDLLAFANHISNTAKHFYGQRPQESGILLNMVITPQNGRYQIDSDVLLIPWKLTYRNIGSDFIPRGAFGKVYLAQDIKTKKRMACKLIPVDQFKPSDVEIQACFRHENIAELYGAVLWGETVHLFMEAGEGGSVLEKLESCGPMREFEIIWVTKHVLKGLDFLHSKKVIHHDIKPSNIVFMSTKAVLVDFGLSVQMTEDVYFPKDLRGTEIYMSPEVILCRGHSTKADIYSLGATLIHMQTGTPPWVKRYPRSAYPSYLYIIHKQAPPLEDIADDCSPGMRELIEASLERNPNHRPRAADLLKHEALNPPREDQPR
Test: High Throughput Cot Biochemical Assay
Details: IC50 HTRF, Cot HTRF (TR-FRET KinEASE) biochemical assay, 400 μM ATP

Q: How did the IC50 turn out when Cc1nc(F)ccc1[C@H](Nc1cc(C#N)c2ncc(C#N)c(NCC(C)(C)C)c2c1)c1cn(C(CF)CF)nn1 [Example 869, (S)-6-(((1-(1,3-difluoropropan-2-yl)-1H-1,2,3-triazol-4-yl)(6-fluoro-2-methylpyridin-3-yl)methyl)amino)-4-(neopentylamino)quinoline-3,8-dicarbonitrile] was run?
A: 2 nM

Q: How did the IC50 turn out when Cc1nc(F)ccc1[C@H](Nc1cc(Cl)c2ncc(C#N)c(NCC(C)(C)C)c2c1)c1nnn(C2(C)CC2)c1F [Example 947, (S)-8-chloro-6-(((5-fluoro-1-(1-methylcyclopropyl)-1H-1,2,3-triazol-4-yl)(6-fluoro-2-methyl-pyridin-3-yl)methyl)amino)-4-(neopentylamino)quinoline-3-carbonitrile] was run?
A: 3 nM

Same assay, conditions: IC50 HTRF, Cot HTRF (TR-FRET) biochemical assay

Q: Which IC50 does the source give for Cc1nc(F)ccc1[C@H](Nc1cc(F)c2ncc(C#N)c(NCC(C)(C)C)c2c1)c1cn(C2(C(F)F)CC2)nn1 [Example 514, (S)-6-(((1-(1-(difluoromethyl)cyclopropyl)-1H-1,2,3-triazol-4-yl)(6-fluoro-2-methylpyridin-3-yl)methyl)amino)-8-fluoro-4-(neopentylamino)quinoline-3-carbonitrile] here?
A: 4 nM

Q: Which IC50 does the source give for CC(C)(C)CNc1c(C#N)cnc2c(C#N)cc(N[C@H](c3cn(C4(C(F)(F)F)CC4)nn3)c3csc4c3CCN(C3COC3)C4)cc12 [Example 429, (S)-4-(neopentylamino)-6-(((6-(oxetan-3-yl)-4,5,6,7-tetrahydrothieno[2,3-c]pyridin-3-yl)(1-(1-(trifluoromethyl)cyclopropyl)-1H-1,2,3-triazol-4-yl)methyl)amino)-quinoline-3,8-dicarbonitrile] here?
A: 2 nM

Q: For CCN1CCC(n2cc(C(Nc3cc(Cl)c4ncc(C#N)c(Nc5ccc(F)c(Cl)c5)c4c3)c3cn(C)nn3)nn2)CC1 (centres unmarked) [Example 396, 8-chloro-4-((3-chloro-4-fluoro-phenyl)amino)-6-(((1-(1-ethyl-piperidin-4-yl)-1H-1,2,3-triazol-4-yl)(1-methyl-1H-1,2,3-triazol-4-yl)methyl)amino)quinoline-3-carbonitrile], which IC50 is on record?
A: 43 nM

Q: For N#Cc1cnc2c(Cl)cc(N[C@@H](c3cscn3)c3cn(CCO)nn3)cc2c1Nc1ccc(F)c(Cl)c1 [Example 356, (S)-8-chloro-4-((3-chloro-4-fluorophenyl)amino)-6-(((1-(2-hydroxyethyl)-1H-1,2,3-triazol-4-yl)(thiazol-4-yl)methyl)amino)-quinoline-3-carbonitrile], which IC50 is on record?
A: 2 nM

Q: How did the IC50 turn out when Cc1nc(F)ccc1[C@H](Nc1cc(Cl)c2ncc(C#N)c(NCC(C)(C)C)c2c1)c1cn(C2(C#N)CC2)nn1 [Example 476, (S)-8-chloro-6-(((1-(1-cyanocyclopropyl)-1H-1,2,3-triazol-4-yl)(6-fluoro-2-methylpyridin-3-yl)methyl)amino)-4-(neopentylamino)-quinoline-3-carbonitrile] was run?
A: 3 nM

Q: CC(C)(C)CNc1c(C#N)cnc2c(Cl)cc(N[C@H](c3cn(C4(C(F)F)CC4)nn3)c3cccc4c3CNC4)cc12 [Example 445, (S)-8-chloro-6-(((1-(1-(difluoromethyl)-cyclopropyl)-1H-1,2,3-triazol-4-yl)(isoindolin-4-yl)methyl)amino)-4-(neopentylamino)quinoline-3-carbonitrile] was tested. Which IC50 did it give?
A: 2 nM

Q: Cc1ncccc1[C@H](Nc1cc(Cl)c2ncc(C#N)c(Nc3ccc(F)c(Cl)c3)c2c1)c1cn(C(C)C)nn1 [Example 282, (S)-8-chloro-4-((3-chloro-4-fluorophenyl)amino)-6-(((1-isopropyl-1H-1,2,3-triazol-4-yl)(2-methylpyridin-3-yl)methyl)amino)-quinoline-3-carboni trile] was tested. Which IC50 did it give?
A: 3 nM

Q: Which IC50 does the source give for Cn1cnc2cccc([C@H](Nc3cc(Cl)c4ncc(C#N)c(NCC(C)(C)C)c4c3)c3cn(C4(C(F)F)CC4)nn3)c21 [Example 499, (S)-8-chloro-6-(((1-(1-(difluoromethyl)-cyclopropyl)-1H-1,2,3-triazol-4-yl)(1-methyl-1H-benzo[d]imidazol-7-yl)methyl)amino)-4-(neopentylamino)-quinoline-3-carbonitrile] here?
A: 3 nM

Q: Which IC50 does the source give for CC(C)(C)CNc1c(C#N)cnc2c(Cl)cc(N[C@H](c3cn(C4(C(F)F)CC4)nn3)c3ccc(F)c4ncccc34)cc12 [Example 653, (S)-8-chloro-6-(((1-(1-(difluoromethyl)cyclopropyl)-1H-1,2,3-triazol-4-yl)(8-fluoroquinolin-5-yl)methyl)amino)-4-(neopentylamino)quinoline-3-carbonitrile] here?
A: 4 nM

Q: With N#Cc1cnc2c(Cl)cc(N[C@@H](c3cccnc3)c3cn(CCO)nn3)cc2c1Nc1ccc(F)c(Cl)c1 [Example 336, (S)-8-chloro-4-((3-chloro-4-fluoro-phenyl)amino)-6-(((1-(2-hydroxyethyl)-1H-1,2,3-triazol-4-yl)(pyridin-3-yl)methyl)amino)quinoline-3-carbonitrile] as the compound, how does the IC50 read?
A: 2 nM

Q: With Cn1cc(C(Nc2cc(Cl)c3ncc(C#N)c(Nc4ccc(F)c(Cl)c4)c3c2)c2cccnc2)nn1 (centres unmarked) [Example 395, 8-chloro-4-((3-chloro-4-fluoro-phenyl)amino)-6-(((1-methyl-1H-1,2,3-triazol-4-yl)(pyridin-3-yl)methyl)amino)quinoline-3-carbonitrile] as the compound, how does the IC50 read?
A: 4 nM

Same assay, conditions: read-out: IC50 HTRF; Cot HTRF (TR-FRET) biochemical assay

Q: How did the IC50 turn out when N#Cc1cnc2c(Cl)cc(N[C@@H](c3ccsc3)c3cn(C4CCNCC4)nn3)cc2c1Nc1ccc(F)c(Cl)c1 [Example 393, (S)-8-chloro-4-t-((3-chloro-4-fluoro-phenyl)amino)-6-(((1-(piperidin-4-yl)-1H-1,2,3-triazol-4-yl)(thiophen-3-yl)methyl)amino)quinoline-3-carbonitrile] was run?
A: 5 nM

Q: Which IC50 does the source give for Cc1nc(F)ccc1[C@H](Nc1cc(Cl)c2ncc(C#N)c(NCC(C)(C)C)c2c1)c1cn(C(F)(F)CO)nn1 [Example 584, (S)-8-chloro-6-(((1-(i, 1-difluoro-2-hydroxyethyl)-1H-1,2,3-triazol-4-yl)(6-fluoro-2-methylpyridin-3-yl)methyl)amino)-4-(neopentylamino)quinoline-3-carbonitrile] here?
A: 2 nM

Q: N#Cc1csc([C@H](Nc2cc(Cl)c3ncc(C#N)c(Nc4ccc(F)c(Cl)c4)c3c2)c2cn(CCN3CCOCC3)nn2)c1 [Example 332, (R)-8-chloro-4-((3-chloro-4-fluorophenyl)amino)-6-(((4-cyanothiophen-2-yl)(1-(2-morpho-linoethyl)-1H-1,2,3-triazol-4-yl)methyl)amino)quinoline-3-carbonitrile] was tested. Which IC50 did it give?
A: 65 nM

Q: With CC(C)(C)CNc1c(C#N)cnc2c(C#N)cc(N[C@H](c3cn(C4(C5CC5)CC4)nn3)c3cccc4ncccc34)cc12 [Example 696] as the compound, how does the IC50 read?
A: 2 nM

Q: Which IC50 does the source give for Cc1n[nH]c2cccc([C@H](Nc3cc(C#N)c4ncc(C#N)c(NCC(C)(C)C)c4c3)c3cn(C4(C(F)F)CC4)nn3)c12 [Example 571] here?
A: 2 nM

Q: How did the IC50 turn out when Cc1ncsc1[C@H](Nc1cc(Cl)c2ncc(C#N)c(NCC(C)(C)C)c2c1)c1cn(C2(C(F)(F)F)CC2)nn1 [Example 701, (R)-8-chloro-6-(((4-methylthiazol-5-yl)(1-(1-(trifluoromethyl)cyclopropyl)-1H-1,2,3-triazol-4-yl)methyl)airiino)-4-(neopentylamino)quinoline-3-carbonitrile] was run?
A: 10 nM
